In patent publication US20260285850A1, “SUBSTITUTED OXAZOLIDINONES AND IMIDAZOLINONES AS HERBICIDES” (FMC CORPORATION, priority 2023, published 2026):

Legend:
Format in all cases: in vivo
[1] = system: barnyardgrass (Echinochloa crus-galli); experiment: Test A preemergence soil spray, visual injury rating 0-100; conditions: 10 days
Outline: (§1)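 Compounds formulated in a non-phytotoxic solvent with surfactant are sprayed onto soil of freshly planted loam-sand pots ahead of emergence, or onto emerged plants 2-10 cm tall. After a 10-day greenhouse period, each species is scored visually for injury against untreated controls.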

[2] = system: blackgrass (Alopecurus myosuroides); experiment: as above; conditions: 10 days
Outline: as §1

corn (Zea mays) [3] = experiment: as above; conditions: 10 days
Outline: as §1

[4] = system: green foxtail (Setaria viridis); experiment: as above; conditions: 10 days
Outline: as §1

kochia (Bassia scoparia) [5] = experiment: as above; conditions: 10 days
Outline: as §1

[6] = system: oat, wild (wild oat, Avena fatua); experiment: as above; conditions: 10 days
Outline: as §1

[7] = system: palmer (palmer amaranth, palmer pigweed, Amaranthus palmeri); experiment: as above; conditions: 10 days
Outline: as §1

[8] = system: ragweed (common ragweed, Ambrosia artemisiifolia); experiment: as above; conditions: 10 days
Outline: as §1

[9] = system: ryegrass, Italian (italian ryegrass, Lolium multiflorum); experiment: as above; conditions: 10 days
Outline: as §1

soybean (Glycine max) [10] = experiment: as above; conditions: 10 days
Outline: as §1

[11] = system: wheat (Triticum aestivum); experiment: as above; conditions: 10 days
Outline: as §1

[12] = system: barnyardgrass (Echinochloa crus-galli); experiment: Test A postemergence application, visual injury rating 0-100
Outline: as §1

[13] = system: blackgrass (Alopecurus myosuroides); experiment: as above
Outline: as §1

corn (Zea mays) [14] = experiment: as above
Outline: as §1

[15] = system: galium (catchweed bedstraw, Galium aparine); experiment: as above
Outline: as §1

[16] = system: green foxtail (Setaria viridis); experiment: as above
Outline: as §1

[17] = system: horseweed (Erigeron canadensis); experiment: as above
Outline: as §1

kochia (Bassia scoparia) [18] = experiment: as above
Outline: as §1

[19] = system: oat, wild (wild oat, Avena fatua); experiment: as above
Outline: as §1

[20] = system: palmer (palmer amaranth, palmer pigweed, Amaranthus palmeri); experiment: as above
Outline: as §1

[21] = system: ragweed (common ragweed, Ambrosia artemisiifolia); experiment: as above
Outline: as §1

[22] = system: ryegrass, Italian (italian ryegrass, Lolium multiflorum); experiment: as above
Outline: as §1

soybean (Glycine max) [23] = experiment: as above
Outline: as §1

[24] = system: wheat (Triticum aestivum); experiment: as above
Outline: as §1

[25] = system: barnyardgrass (Echinochloa crusgalli); experiment: Test B flooded paddy test, visual plant response rating 0-100; conditions: 250 g ai/ha, Flood, applied to paddy water, evaluated after 13 days
Outline: (§2)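 Compounds applied to standing paddy water (3 cm above soil, maintained for the test duration) on 2-leaf-stage plants; visual rating vs controls at 13 days, greenhouse.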

[26] = system: ducksalad (Heteranthera limosa); experiment: as above; conditions: 250 g ai/ha, Flood, applied to paddy water, evaluated after 13 days
Outline: as §2

rice (Oryza sativa) = experiment: as above; conditions: 250 g ai/ha, Flood, applied to paddy water, evaluated after 13 days
Outline: as §2

[27] = system: sedge, umbrella (small-flower umbrella sedge, Cyperus difformis); experiment: as above; conditions: 250 g ai/ha, Flood, applied to paddy water, evaluated after 13 days
Outline: as §2

[28] = 62 g ai/ha, 0 = no effect, 100 = complete control
[29] = 62 g ai/ha, postemergence, 10 days, 0 = no effect, 100 = complete control
[30] = Postemergence, 16 g ai/ha, greenhouse 10 days, 0 no effect, 100 complete control

## CC1(C(=O)NC2CC(C(=O)O)C2)CN(c2cc(F)cc(F)c2)C(=O)O1 (stereo not shown) [Compound 119]
[1]; 16 g ai/ha, 0 to 100 scale
  Barnyardgrass plant response rating: 0
[1]; [28]
  Barnyardgrass plant response rating (0-100): 80
[2]; 16 g ai/ha, 0 to 100 scale
  Blackgrass plant response rating: 40
[2]; [28]
  Blackgrass plant response rating (0-100): 80
Corn (Zea mays) [3]; 16 g ai/ha, 0 to 100 scale
  Corn plant response rating: 20
Corn (Zea mays) [3]; [28]
  Corn plant response rating (0-100): 70
[4]; 16 g ai/ha, 0 to 100 scale
  Foxtail, Green plant response rating: 20
[4]; [28]
  Foxtail, Green plant response rating (0-100): 90
Kochia (Bassia scoparia) [5]; 16 g ai/ha, 0 to 100 scale
  Kochia plant response rating: 0
Kochia (Bassia scoparia) [5]; [28]
  Kochia plant response rating (0-100): 80
[6]; 16 g ai/ha, 0 to 100 scale
  Oat, Wild plant response rating: 90
[6]; [28]
  Oat, Wild plant response rating (0-100): 90
[7]; 16 g ai/ha, 0 to 100 scale
  Pigweed, Palmer plant response rating: 10
[7]; [28]
  Pigweed, Palmer plant response rating (0-100): 10
[8]; 16 g ai/ha, 0 to 100 scale
  Ragweed plant response rating: 0
[8]; [28]
  Ragweed plant response rating (0-100): 0
[9]; 16 g ai/ha, 0 to 100 scale
  Ryegrass, Italian plant response rating: 30
[9]; [28]
  Ryegrass, Italian plant response rating (0-100): 80
Soybean (Glycine max) [10]; 16 g ai/ha, 0 to 100 scale
  Soybean plant response rating: 0
Soybean (Glycine max) [10]; [28]
  Soybean plant response rating (0-100): 20
[11]; 16 g ai/ha, 0 to 100 scale
  Wheat plant response rating: 10
[11]; [28]
  Wheat plant response rating (0-100): 60
[12]; [29]
  Barnyardgrass plant response rating (0-100): 100
[12]; [30]
  Barnyardgrass plant response rating (0 to 100 scale): 70
[13]; [29]
  Blackgrass plant response rating (0-100): 100
[13]; [30]
  Blackgrass plant response rating (0 to 100 scale): 80
Corn (Zea mays) [14]; [29]
  Corn plant response rating (0-100): 100
Corn (Zea mays) [14]; [30]
  Corn plant response rating (0 to 100 scale): 100
[15]; [29]
  Galium plant response rating (0-100): 60
[15]; [30]
  Galium plant response rating (0 to 100 scale): 20
[16]; [29]
  Foxtail, Green plant response rating (0-100): 90
[16]; [30]
  Foxtail, Green plant response rating (0 to 100 scale): 70
[17]; [29]
  Horseweed plant response rating (0-100): 0
[17]; [30]
  Horseweed plant response rating (0 to 100 scale): 0
Kochia (Bassia scoparia) [18]; [29]
  Kochia plant response rating (0-100): 80
Kochia (Bassia scoparia) [18]; [30]
  Kochia plant response rating (0 to 100 scale): 10
[19]; [29]
  Oat, Wild plant response rating (0-100): 90
[19]; [30]
  Oat, Wild plant response rating (0 to 100 scale): 40
[20]; [29]
  Pigweed, Palmer plant response rating (0-100): 50
[20]; [30]
  Pigweed, Palmer plant response rating (0 to 100 scale): 20
[21]; [29]
  Ragweed plant response rating (0-100): 20
[21]; [30]
  Ragweed plant response rating (0 to 100 scale): 0
[22]; [29]
  Ryegrass, Italian plant response rating (0-100): 60
[22]; [30]
  Ryegrass, Italian plant response rating (0 to 100 scale): 0
Soybean (Glycine max) [23]; [29]
  Soybean plant response rating (0-100): 80
Soybean (Glycine max) [23]; [30]
  Soybean plant response rating (0 to 100 scale): 50
[24]; [29]
  Wheat plant response rating (0-100): 90
[24]; [30]
  Wheat plant response rating (0 to 100 scale): 80
[25]
  Plant response rating, Barnyardgrass (0 to 100 scale, 0 is no effect and 100 is complete control): 0
[26]
  Plant response rating, Ducksalad (0 to 100 scale, 0 is no effect and 100 is complete control): 0
Rice (Oryza sativa)
  Plant response rating, Rice (0 to 100 scale, 0 is no effect and 100 is complete control): 0
[27]
  Plant response rating, Sedge, Umbrella (0 to 100 scale, 0 is no effect and 100 is complete control): 0
